Laboratory results from ChEMBL document CHEMBL3885881, “DrugMatrix”.

Organism: Rattus norvegicus
Test: DrugMatrix - Regimen: Daily Repeat
Type: toxicity, organism-based, Sprague-Dawley
Set-up: regimen Daily Repeat, gender Male, age 6-8 weeks
Details: in vivo, po, route oral GAVAGE, vehicle .5 % CMC; for ABSOLUTE BASOPHIL / ABSOLUTE EOSINOPHIL / ABSOLUTE LYMPHOCYTE / ABSOLUTE MONOCYTE / ABSOLUTE SEGMENTED NEUTROPHIL / BASOPHIL / EOSINOPHIL / ERYTHROCYTE COUNT / HEMATOCRIT / HEMOGLOBIN / LEUKOCYTE COUNT / LYMPHOCYTE / MEAN CORPUSCULAR HEMOGLOBIN / MEAN CORPUSCULAR HEMOGLOBIN CONCENTRATION / MEAN CORPUSCULAR VOLUME / MONOCYTE / NEUTROPHIL / NUCLEATED RED BLOOD CELLS / PLATELET COUNT: tissue Blood; for ALANINE AMINOTRANSFERASE / ALBUMIN / ALKALINE PHOSPHATASE / ASPARTATE AMINOTRANSFERASE / BLOOD UREA NITROGEN / CARBON DIOXIDE / CHLORIDE / CHOLESTEROL / CREATINE PHOSPHOKINASE / CREATININE / GLUCOSE / LACTATE DEHYDROGENASE / LIPASE / PHOSPHORUS / POTASSIUM / SODIUM / TOTAL BILIRUBIN / TOTAL PROTEIN / URIC ACID: tissue Plasma
[1] = 0 mg/kg, 72 h, dose level Control, time 3 day
[2] = 0 mg/kg, 120 h, dose level Control, time 5 day
[3] = 1 mg/kg, 72 h, dose level Low, time 3 day
[4] = 1 mg/kg, 120 h, dose level Low, time 5 day

For OC(CCN1CCCCC1)(c1ccccc1)C1CCCCC1 (configuration not stated) [TRIHEXYPHENIDYL], the “ABSOLUTE BASOPHIL” value [1] was 0 CELLS/uL, the “ABSOLUTE EOSINOPHIL” value [1] was 0 CELLS/uL and the “ABSOLUTE LYMPHOCYTE” value [1] was 10913.67 CELLS/uL. The “ABSOLUTE MONOCYTE” value [1] was 85.33 CELLS/uL, the “ABSOLUTE SEGMENTED NEUTROPHIL” value [1] was 1401 CELLS/uL and the BASOPHIL [1] was 0%. The EOSINOPHIL [1] was 0%, the “ERYTHROCYTE COUNT” value [1] was 5.57 x10E6/uL and the HEMATOCRIT [1] was 35.58%. For the same compound, the HEMOGLOBIN [1] was 13.8 G/DL, the “LEUKOCYTE COUNT” value [1] was 12.4 x10E3/uL and the LYMPHOCYTE [1] was 88%. The “MEAN CORPUSCULAR HEMOGLOBIN” value [1] was 24.78 pg, the “MEAN CORPUSCULAR HEMOGLOBIN CONCENTRATION” value [1] was 38.82 G/DL and the “MEAN CORPUSCULAR VOLUME” value [1] was 63.88 fL. For the same compound, the MONOCYTE [1] was 0.67%, the NEUTROPHIL [1] was 11.33% and the “NUCLEATED RED BLOOD CELLS” value [1] was 0 /100WBC. For the same compound, the “PLATELET COUNT” value [1] was 1162.33 x10E3/uL, the “ALANINE AMINOTRANSFERASE” value [1] was 53 u/L and the ALBUMIN [1] was 4.17 G/DL. For the same compound, the “ALKALINE PHOSPHATASE” value [1] was 374.5 u/L, the “ASPARTATE AMINOTRANSFERASE” value [1] was 89.5 u/L and the “BLOOD UREA NITROGEN” value [1] was 16.33 mg/dL. The “CARBON DIOXIDE” value [1] was 29.17 mmol/L, the CHLORIDE [1] was 97.67 MEQ/L and the CHOLESTEROL [1] was 77 mg/dL. For the same compound, the “CREATINE PHOSPHOKINASE” value [1] was 464.83 u/L, the CREATININE [1] was 0.14 mg/dL and the GLUCOSE [1] was 164 mg/dL. The “LACTATE DEHYDROGENASE” value [1] was 155.5 u/L, the LIPASE [1] was 9.17 u/L and the PHOSPHORUS [1] was 12.4 mg/dL. The POTASSIUM [1] was 6.91 MEQ/L, the SODIUM [1] was 141.47 MEQ/L and the “TOTAL BILIRUBIN” value [1] was 0.2 mg/dL. For the same compound, the “TOTAL PROTEIN” value [1] was 5.95 G/DL, the “URIC ACID” value [1] was 1.72 mg/dL and the “ABSOLUTE BASOPHIL” value [2] was 0 CELLS/uL. The “ABSOLUTE EOSINOPHIL” value [2] was 20.5 CELLS/uL, the “ABSOLUTE LYMPHOCYTE” value [2] was 13871.67 CELLS/uL and the “ABSOLUTE MONOCYTE” value [2] was 60.5 CELLS/uL. For the same compound, the “ABSOLUTE SEGMENTED NEUTROPHIL” value [2] was 980.67 CELLS/uL, the BASOPHIL [2] was 0% and the EOSINOPHIL [2] was 0.17%. The “ERYTHROCYTE COUNT” value [2] was 5.65 x10E6/uL, the HEMATOCRIT [2] was 35.63% and the HEMOGLOBIN [2] was 14.08 G/DL. For the same compound, the “LEUKOCYTE COUNT” value [2] was 14.93 x10E3/uL, the LYMPHOCYTE [2] was 92.83% and the “MEAN CORPUSCULAR HEMOGLOBIN” value [2] was 24.97 pg. The “MEAN CORPUSCULAR HEMOGLOBIN CONCENTRATION” value [2] was 39.55 G/DL, the “MEAN CORPUSCULAR VOLUME” value [2] was 63.13 fL and the MONOCYTE [2] was 0.33%. The NEUTROPHIL [2] was 6.67%, the “NUCLEATED RED BLOOD CELLS” value [2] was 0 /100WBC and the “PLATELET COUNT” value [2] was 1248.17 x10E3/uL. The “ALANINE AMINOTRANSFERASE” value [2] was 45.17 u/L, the ALBUMIN [2] was 4.27 G/DL and the “ALKALINE PHOSPHATASE” value [2] was 405.67 u/L. For the same compound, the “ASPARTATE AMINOTRANSFERASE” value [2] was 74.17 u/L, the “BLOOD UREA NITROGEN” value [2] was 15.5 mg/dL and the “CARBON DIOXIDE” value [2] was 30.17 mmol/L. For the same compound, the CHLORIDE [2] was 100.67 MEQ/L, the CHOLESTEROL [2] was 57 mg/dL and the “CREATINE PHOSPHOKINASE” value [2] was 239.5 u/L. For the same compound, the CREATININE [2] was 0.17 mg/dL, the GLUCOSE [2] was 165.67 mg/dL and the “LACTATE DEHYDROGENASE” value [2] was 90.5 u/L. For the same compound, the LIPASE [2] was 8.83 u/L, the PHOSPHORUS [2] was 12.32 mg/dL and the POTASSIUM [2] was 7.03 MEQ/L. For the same compound, the SODIUM [2] was 142.65 MEQ/L, the “TOTAL BILIRUBIN” value [2] was 0.18 mg/dL and the “TOTAL PROTEIN” value [2] was 6.03 G/DL. For the same compound, the “URIC ACID” value [2] was 1.98 mg/dL, the “ABSOLUTE BASOPHIL” value [3] was 0 CELLS/uL and the “ABSOLUTE EOSINOPHIL” value [3] was 0 CELLS/uL. For the same compound, the “ABSOLUTE LYMPHOCYTE” value [3] was 14884.67 CELLS/uL, the “ABSOLUTE MONOCYTE” value [3] was 0 CELLS/uL and the “ABSOLUTE SEGMENTED NEUTROPHIL” value [3] was 848.67 CELLS/uL. For the same compound, the BASOPHIL [3] was 0%, the EOSINOPHIL [3] was 0% and the “ERYTHROCYTE COUNT” value [3] was 5.35 x10E6/uL. The HEMATOCRIT [3] was 35.77%, the HEMOGLOBIN [3] was 14.27 G/DL and the “LEUKOCYTE COUNT” value [3] was 15.73 x10E3/uL. The LYMPHOCYTE [3] was 94.33%, the “MEAN CORPUSCULAR HEMOGLOBIN” value [3] was 26.7 pg and the “MEAN CORPUSCULAR HEMOGLOBIN CONCENTRATION” value [3] was 39.87 G/DL. The “MEAN CORPUSCULAR VOLUME” value [3] was 66.97 fL, the MONOCYTE [3] was 0% and the NEUTROPHIL [3] was 5.67%. The “NUCLEATED RED BLOOD CELLS” value [3] was 0 /100WBC, the “PLATELET COUNT” value [3] was 1285.67 x10E3/uL and the “ALANINE AMINOTRANSFERASE” value [3] was 51.33 u/L. For the same compound, the ALBUMIN [3] was 4.33 G/DL, the “ALKALINE PHOSPHATASE” value [3] was 449.67 u/L and the “ASPARTATE AMINOTRANSFERASE” value [3] was 84 u/L. The “BLOOD UREA NITROGEN” value [3] was 18.67 mg/dL, the “CARBON DIOXIDE” value [3] was 27.33 mmol/L and the CHLORIDE [3] was 99.67 MEQ/L. For the same compound, the CHOLESTEROL [3] was 76 mg/dL, the “CREATINE PHOSPHOKINASE” value [3] was 344.67 u/L and the CREATININE [3] was 0.14 mg/dL. For the same compound, the GLUCOSE [3] was 149.33 mg/dL, the “LACTATE DEHYDROGENASE” value [3] was 254.67 u/L and the LIPASE [3] was 9.33 u/L. It also gave a PHOSPHORUS [3] of 13.83 mg/dL, a POTASSIUM [3] of 6.89 MEQ/L and an SODIUM [3] of 145.2 MEQ/L. The “TOTAL BILIRUBIN” value [3] was 0.17 mg/dL, the “TOTAL PROTEIN” value [3] was 6.23 G/DL and the “URIC ACID” value [3] was 1.77 mg/dL. For the same compound, the “ABSOLUTE BASOPHIL” value [4] was 0 CELLS/uL, the “ABSOLUTE EOSINOPHIL” value [4] was 0 CELLS/uL and the “ABSOLUTE LYMPHOCYTE” value [4] was 16182.67 CELLS/uL. For the same compound, the “ABSOLUTE MONOCYTE” value [4] was 124 CELLS/uL, the “ABSOLUTE SEGMENTED NEUTROPHIL” value [4] was 1360 CELLS/uL and the BASOPHIL [4] was 0%. The EOSINOPHIL [4] was 0%, the “ERYTHROCYTE COUNT” value [4] was 5.66 x10E6/uL and the HEMATOCRIT [4] was 35.77%. For the same compound, the HEMOGLOBIN [4] was 14.3 G/DL, the “LEUKOCYTE COUNT” value [4] was 17.67 x10E3/uL and the LYMPHOCYTE [4] was 91.67%. For the same compound, the “MEAN CORPUSCULAR HEMOGLOBIN” value [4] was 25.23 pg, the “MEAN CORPUSCULAR HEMOGLOBIN CONCENTRATION” value [4] was 40 G/DL and the “MEAN CORPUSCULAR VOLUME” value [4] was 63.13 fL. The MONOCYTE [4] was 0.67%, the NEUTROPHIL [4] was 7.67% and the “NUCLEATED RED BLOOD CELLS” value [4] was 0.33 /100WBC. The “PLATELET COUNT” value [4] was 1182.33 x10E3/uL, the “ALANINE AMINOTRANSFERASE” value [4] was 45.67 u/L and the ALBUMIN [4] was 4.2 G/DL. The “ALKALINE PHOSPHATASE” value [4] was 394 u/L, the “ASPARTATE AMINOTRANSFERASE” value [4] was 78.67 u/L and the “BLOOD UREA NITROGEN” value [4] was 15.67 mg/dL. The “CARBON DIOXIDE” value [4] was 26.67 mmol/L, the CHLORIDE [4] was 101 MEQ/L and the CHOLESTEROL [4] was 73.33 mg/dL. The “CREATINE PHOSPHOKINASE” value [4] was 379.33 u/L, the CREATININE [4] was 0.13 mg/dL and the GLUCOSE [4] was 139.67 mg/dL. The “LACTATE DEHYDROGENASE” value [4] was 370.67 u/L, the LIPASE [4] was 9 u/L and the PHOSPHORUS [4] was 12.93 mg/dL. For the same compound, the POTASSIUM [4] was 6.84 MEQ/L, the SODIUM [4] was 143 MEQ/L and the “TOTAL BILIRUBIN” value [4] was 0.17 mg/dL. The “TOTAL PROTEIN” value [4] was 5.9 G/DL and the “URIC ACID” value [4] was 1.3 mg/dL.
